{"source": "patent US6989450B2", "about": "(priority 2000, dated 2006)", "origin": "cited, not measured here", "key": {"[1]": {"system": "P-glycoprotein expressing KBV-1 cells", "conditions": "P-glycoprotein (MDR protein) expressing KBV-1 cells"}, "[2]": {"biological_target": "microtubule, or polymeric, form of tubulin", "conditions": "binding to polymeric tubulin"}, "[3]": {"system": "multidrug resistant cell lines"}, "[4]": {"conditions": "water solubility; comparison with taxol"}}, "note": "Read-outs that look alike come from different tables or passages of the source.", "data": [{"smiles": "CC(=O)O[C@H]1C(=O)[C@@]2(C)[C@H]([C@H](OC(=O)c3ccccc3)[C@]3(O)C[C@H](OC(=O)[C@H](O)[C@@H](NC(=O)c4ccccc4)c4ccccc4)C(C)=C1C3(C)C)[C@]1(OC(C)=O)CO[C@@H]1C[C@@H]2O", "note": "[Taxol]", "values": [{"measurement": "IC50", "setting": "[1]", "value": 23, "unit": "µM"}, {"measurement": "KD", "setting": "[2]", "value": "micromolar"}]}, {"smiles": "C/C(=C\\c1csc(C)n1)[C@@H]1C[C@@H]2O[C@]2(C)CCC[C@H](C)[C@H](O)[C@@H](C)C(=O)C(C)(C)[C@@H](O)CC(=O)O1", "note": "[Epothilone B]", "values": [{"measurement": "IC50", "setting": "[1]", "value": 0.058, "unit": "µM"}, {"measurement": "potency relative to Taxol", "setting": "[3]; multidrug resistant cell lines / cancerous cells with acquired multiple drug resistance", "value": "thousand-fold more active than Taxol"}, {"measurement": "potency relative to Taxol", "setting": "[3]; multidrug resistant cell lines / cancerous cells with acquired multiple drug resistance, listed as 1", "value": "thousand-fold more potent"}, {"measurement": "solubility", "setting": "[4]", "value": "better solubility than taxol"}]}, {"smiles": "C/C(=C\\c1csc(C)n1)[C@@H]1C[C@@H]2O[C@@H]2CCC[C@H](C)[C@H](O)[C@@H](C)C(=O)C(C)(C)[C@@H](O)CC(=O)O1", "note": "[Epothilone A]", "values": [{"measurement": "potency relative to Taxol", "setting": "[3]", "value": "thousand-fold more potent"}]}]}
